Peptide text beside a SMILES is read from it.
Columns and labels:
[1] = test system: SH-SY5Y neuroblastoma cell line; experiment: Cell cytotoxicity assay; format: cell-based; conditions: up to a concentration of 20 μM; 72 h; CellTiterGlo
APPSWE/Tg2576 mice = experiment: Efficacy in 5-month-old AD model mice: Y-maze spontaneous alternation; format: in vivo, mouse; conditions: 5-month-old mice, 100 μg s.c. biweekly for 5 months, n = 12

Compound	Toxicity in SH-SY5Y cells [1]	Y-maze % alternation, after vs before treatment (APPSWE/Tg2576 mice)
C[C@H](O)[C@@H](NC(=O)[C@@H](Cc1c[nH]c2ccccc12)NC(=O)[C@@H](CCC(=O)O)NC(=O)CNC(=O)[C@@H](CCCCN)NC(=O)[C@H](N)Cc1c[nH]c2ccccc12)C(=O)NCC(=O)N[C@H](CCCNC(=N)N)C(=O)NCCC(=O)NCCCC[C@H](NC(=O)CCNC(=O)[C@@H](CCCNC(=N)N)NC(=O)CNC(=O)[C@H](NC(=O)[C@@H](Cc1c[nH]c2ccccc12)NC(=O)[C@@H](CCC(=O)O)NC(=O)CNC(=O)[C@@H](CCCCN)NC(=O)[C@H](N)Cc1c[nH]c2ccccc12)[C@H](C)O)C(=O)NCCCC[C@H](NC(=O)[C@H](CCCCNC(=O)CCNC(=O)[C@@H](CCCNC(=N)N)NC(=O)CNC(=O)[C@H](NC(=O)[C@@H](Cc1c[nH]c2ccccc12)NC(=O)[C@@H](CCC(=O)O)NC(=O)CNC(=O)[C@@H](CCCCN)NC(=O)[C@H](N)Cc1c[nH]c2ccccc12)[C@H](C)O)NC(=O)CCNC(=O)[C@@H](CCCNC(=N)N)NC(=O)CNC(=O)[C@H](NC(=O)[C@@H](Cc1c[nH]c2ccccc12)NC(=O)[C@@H](CCC(=O)O)NC(=O)CNC(=O)[C@@H](CCCCN)NC(=O)[C@H](N)Cc1c[nH]c2ccccc12)[C@H](C)O)C(=O)N[C@@H](CS)C(=O)O [RI-peptide] (HELM PEPTIDE1{[dW].[dK].G.[dE].[dW].[dT].G.[dR].[bAla].K.K.C}|PEPTIDE2{[dW].[dK].G.[dE].[dW].[dT].G.[dR].[bAla].K}|PEPTIDE3{[dW].[dK].G.[dE].[dW].[dT].G.[dR].[bAla]}|PEPTIDE4{[dW].[dK].G.[dE].[dW].[dT].G.[dR].[bAla]}$PEPTIDE1,PEPTIDE4,10:R3-9:R2|PEPTIDE1,PEPTIDE2,11:R3-10:R2|PEPTIDE2,PEPTIDE3,10:R3-9:R2$$$V2.0; N-terminus and C-terminus assumed)	not toxic	
[FFVLK]4		improved % alternation results after treatment
